From patent US20240101546A1, “HETEROARYL-ACETYLENES, PHARMACEUTICAL COMPOSITIONS THEREOF, AND THEIR THERAPEUTIC APPLICATIONS” (Eubulus Biotherapeutics Inc., priority 2020, published 2024)

These compounds were tested on hepatocellular carcinoma cell line Hub-7 (assay: Cell proliferation assay, Hub-7 (CELL-TITER GLO)). Conditions: Hub-7 cells, 24 h incubation, cell viability by CELL-TITER GLO, top concentration 10 μM; read-out: EC50, Inhibition of Hub-7 Cell Proliferation.
Format: cell-based
Protocol: The activity of a compound was determined in a cell proliferation assay using the hepatocellular carcinoma cell line Hub-7. Cells (4,000 cells per well) were seeded in a 96-well tissue culture plate. After incubated overnight, the compound was added at predetermined concentrations, starting with 10 μM and followed by 3-fold serial dilution. After the cells were incubated for 24 h, cell viability was determined using a CELL-TITER GLO® assay. The CELL-TITER GLO® reagent (50 μL) was added to each well and the luminescence was measured by a multimode microplate reader after a brief period of shaking. EC50 values were determined for the compound. The results are summarized in Table 1, wherein A represents a value no greater than 200 nM, B represents a value greater than 200 nM but no greater than 1 μM, C represents a value greater than 1 μM but no greater than 5 μM, and D represents a value greater than 5 μM.
`C#Cc1nc(NC(=O)NCc2ccc(-c3cccc4c3S(=O)(=O)C=C4)cc2)cs1` [Compound A1, 1-(4-(1,1-Dioxidobenzo[b]thiophen-7-yl)benzyl)-3-(2-ethynylthiazol-4-yl)urea] showed an EC50 of 0.2 to 1 µM.
In the case of `C#Cc1nc(NC(=O)NCc2ccc(-c3cccc4c3S(=O)(=O)CC4O)cc2)cs1` (centres unmarked) [Compound A2, 1-(2-Ethynylthiazol-4-yl)-3-(4-(3-hydroxy-1,1-dioxido-2,3-dihydrobenzo[b]-thiophen-7-yl)benzyl)urea], the EC50 is reported as 1 to 5 µM.
Work on `C#Cc1nc(NC(=O)NCc2ccc(-c3cccc4c3S(=O)(=O)CC4=O)cc2)cs1` [Compound A3, 1-(4-(1,1-Dioxido-3-oxo-2,3-dihydrobenzo[b]thiophen-7-yl)benzyl)-3-(2-ethynyl-thiazol-4-yl)urea] yielded an EC50 of 1 to 5 µM.
Work on `C#Cc1nc(NC(=O)NCc2ccc(-c3cc4ncsc4c4c3CNC4=O)cc2)cs1` [Compound A4, 1-(2-Ethynylthiazol-4-yl)-3-(4-(8-oxo-7,8-dihydro-6H-thiazolo[5,4-e]isoindol-5-yl)benzyl)urea] yielded an EC50 of 0.2 to 1 µM.
Work on `C#Cc1nc(NC(=O)NCc2ccc(-c3cccc(N4CC[C@H](O)C4)c3)cc2)cs1` [Compound A5, (S)-1-(2-Ethynylthiazol-4-yl)-3-((3′-(3-hydroxypyrrolidin-1-yl)-[1,1′-biphenyl]-4-yl)methyl)urea] yielded an EC50 of 0.2 to 1 µM.
Compound `C#Cc1nc(NC(=O)NCc2ccc(-c3cccc4ncsc34)cc2)cs1` [Compound A6, 1-(4-(benzo[d]thiazol-7-yl)benzyl)-3-(2-ethynylthiazol-4-yl)urea] has an EC50 of at most 0.2 µM.
Work on `C#Cc1nc(NC(=O)NCc2ccc(-c3cccc(N4CCCC4)c3)cc2)cs1` [Compound A7, 1-(2-Ethynylthiazol-4-yl)-3-((3′-(pyrrolidin-1-yl)-[1,1′-biphenyl]-4-yl)methyl)urea] yielded an EC50 of at most 0.2 µM.
In the case of `C#Cc1nc(NC(=O)NCc2ccc(-c3ccccc3)cc2)cs1` [Compound A8, 1-([1,1′-Biphenyl]-4-ylmethyl)-3-(2-ethynylthiazol-4-yl)urea], the EC50 is reported as at most 0.2 µM.
`C#Cc1nc(NC(=O)NCc2ccc(-c3cccc4ncnc(O)c34)cc2)cs1` [Compound A9, 1-(2-Ethynylthiazol-4-yl)-3-(4-(4-hydroxyquinazolin-5-yl)benzyl)urea] gave an EC50 of at most 0.2 µM.
With `C#Cc1nc(NC(=O)NCc2ccc(-c3cccc(C(N)=O)c3)cc2)cs1` [Compound A10, 4′-((3-(2-Ethynylthiazol-4-yl)ureido)methyl)-[1,1′-biphenyl]-3-carboxamide] the EC50 was 0.2 to 1 µM.
`C#Cc1nc(NC(=O)NCc2ccc(-c3cccc4ncn(C)c(=O)c34)cc2)cs1` [Compound A11, 1-(2-Ethynylthiazol-4-yl)-3-(4-(3-methyl-4-oxo-3,4-dihydroquinazolin-5-yl)-benzyl)urea] showed an EC50 of 0.2 to 1 µM.
Compound `C#Cc1nc(NC(=O)NCc2ccc(-c3cc4ncsc4cc3F)cc2)cs1` [Compound A12, 1-(2-Ethynylthiazol-4-yl)-3-(4-(6-fluorobenzo[d]thiazol-5-yl)benzyl)urea] has an EC50 of 0.2 to 1 µM.
In the case of `C#Cc1nc(NC(=O)NCc2ccc(-c3ccccc3S(=O)(=O)NC)cc2)cs1` [Compound A13, 4′-((3-(2-Ethynylthiazol-4-yl)ureido)methyl)-N-methyl-[1,1′-biphenyl]-2-sulfonamide], the EC50 is reported as 0.2 to 1 µM.
For `C#Cc1nc(NC(=O)NCc2ccc(-c3cccc(C(=O)NC)c3)cc2)cs1` [Compound A14, 4′-((3-(2-Ethynylthiazol-4-yl)ureido)methyl)-N-methyl-[1,1′-biphenyl]-3-carboxamide], the EC50 was 0.2 to 1 µM.
`C#Cc1nc(NC(=O)NCc2ccc(-c3c(C)ccc4c3cnn4C)cc2)cs1` [Compound A15, 1-(4-(1,5-Dimethyl-1H-indazol-4-yl)benzyl)-3-(2-ethynylthiazol-4-yl)urea] was tested, and the EC50 was at most 0.2 µM.
Compound `C#Cc1nc(NC(=O)NCc2ccc(-c3cccc4c3cnn4C)cc2)cs1` [Compound A16, 1-(2-Ethynylthiazol-4-yl)-3-(4-(1-methyl-1H-indazol-4-yl)benzyl)urea] has an EC50 of at most 0.2 µM.
`C#Cc1nc(NC(=O)NCc2ccc(-c3c(C(=O)NC)ccc4ncsc34)cc2)cs1` [Compound A17, 7-(4-((3-(2-Ethynylthiazol-4-yl)ureido)methyl)phenyl)-N-methylbenzo[d]-thiazole-6-carboxamide] showed an EC50 of 1 to 5 µM.
With `C#Cc1nc(NC(=O)NCc2ccc(-c3cccc4ccnc(O)c34)cc2)cs1` [Compound A18, 1-(2-Ethynylthiazol-4-yl)-3-(4-(1-hydroxyisoquinolin-8-yl)benzyl)urea] the EC50 was 0.2 to 1 µM.
For `C#Cc1nc(NC(=O)NCc2ccc(-c3c(C(N)=O)ccc4ncsc34)cc2)cs1` [Compound A19, 7-(4-((3-(2-Ethynylthiazol-4-yl)ureido)methyl)phenyl)benzo[d]thiazole-6-carboxamide], the EC50 was 0.2 to 1 µM.
With `C#Cc1nc(NC(=O)NCc2ccc(-c3cc(C(N)=O)cc4c3cnn4C)cc2)cs1` [Compound A20, 4-(4-((3-(2-Ethynylthiazol-4-yl)ureido)methyl)phenyl)-1-methyl-1H-indazole-6-carboxamide] the EC50 was 1 to 5 µM.
`C#Cc1nc(NC(=O)NCc2ccc(-c3cc(C(=O)NC)cc4c3cnn4C)cc2)cs1` [Compound A21, 4-(4-((3-(2-Ethynylthiazol-4-yl)ureido)methyl)phenyl)-N,1-dimethyl-1H-indazole-6-carboxamide] was tested, and the EC50 was 0.2 to 1 µM.
Compound `C#Cc1nc(NC(=O)NCc2ccc(-c3cc(C(=O)OC)cc4c3cnn4C)cc2)cs1` [Compound A22, Methyl 4-(4-((3-(2-ethynylthiazol-4-yl)ureido)methyl)phenyl)-1-methyl-1H-indazole-6-carboxylate] has an EC50 of at most 0.2 µM.
For `C#Cc1nc(NC(=O)NCc2ccc(-c3cc(C(=O)N(C)C)cc4c3cnn4C)cc2)cs1` [Compound A23, 4-(4-((3-(2-Ethynylthiazol-4-yl)ureido)methyl)phenyl)-N,N,1-trimethyl-1H-indazole-6-carboxamide], the EC50 was 0.2 to 1 µM.
Compound `C#Cc1nc(NC(=O)N2CCCC2c2ccc(-c3cccc4ncsc34)cc2)cs1` (centres unmarked) [Compound B1, 2-(4-(Benzo[d]thiazol-7-yl)phenyl)-N-(2-ethynylthiazol-4-yl)pyrrolidine-1-carboxamide] has an EC50 of 0.2 to 1 µM.
With `C#Cc1nc(NC(=O)N2CC(c3ccc(-c4cccc5ncsc45)cc3)C2)cs1` [Compound B2, 3-(4-(Benzo[d]thiazol-7-yl)phenyl)-N-(2-ethynylthiazol-4-yl)azetidine-1-carboxamide] the EC50 was at most 0.2 µM.
Compound `C#Cc1nc(NC(=O)N2CCc3cc(-c4cccc5ncsc45)ccc3C2)cs1` [Compound B3, 6-(Benzo[d]thiazol-7-yl)-N-(2-ethynylthiazol-4-yl)-3,4-dihydroisoquinoline-2(1H)-carboxamide] has an EC50 of 0.2 to 1 µM.
`C#Cc1nc(NC(=O)N2Cc3ccc(-c4cccc5ncsc45)cc3C2)cs1` [Compound B4, 5-(Benzo[d]thiazol-7-yl)-N-(2-ethynylthiazol-4-yl)isoindoline-2-carboxamide] was tested, and the EC50 was 0.2 to 1 µM.
`C#Cc1nc(NC(=O)N2CCN(c3ccc(-c4cccc5ncsc45)cc3)CC2)cs1` [Compound B5, 4-(4-(Benzo[d]thiazol-7-yl)phenyl)-N-(2-ethynylthiazol-4-yl)piperazine-1-carboxamide] was tested, and the EC50 was at most 0.2 µM.
Work on `C#Cc1nc(NC(=O)N2CCC(c3ccc(-c4cccc5ncsc45)cc3)CC2)cs1` [Compound B6, 4-(4-(Benzo[d]thiazol-7-yl)phenyl)-N-(2-ethynylthiazol-4-yl)piperidine-1-carboxamide] yielded an EC50 of at most 0.2 µM.
Work on `C#Cc1nc(C(=O)NCCc2ccc(-c3cc4ncsc4cc3F)cc2)cs1` [Compound C1, 2-Ethynyl-N-(4-(6-fluorobenzo[d]thiazol-5-yl)phenethyl)thiazole-4-carboxamide] yielded an EC50 of 0.2 to 1 µM.
`C#Cc1nc(C(=O)NCCc2ccc(-c3cccc4ncsc34)c(F)c2)cs1` [Compound C2, N-(4-(Benzo[d]thiazol-7-yl)-3-fluorophenethyl)-2-ethynylthiazole-4-carboxamide] showed an EC50 of at most 0.2 µM.
In the case of `C#Cc1nc(C(=O)NCCc2ccc(-c3c(C(N)=O)ccc4ncsc34)cc2)cs1` [Compound C3, 7-(4-(2-(2-Ethynylthiazole-4-carboxamido)ethyl)phenyl)benzo[d]thiazole-6-carboxamide], the EC50 is reported as 0.2 to 1 µM.
`C#Cc1nc(C(=O)NCCc2ccc(-c3cccc(C(=O)NC)c3)cc2)cs1` [Compound C4, 2-Ethynyl-N-(2-(3′-(methylcarbamoyl)-[1,1′-biphenyl]-4-yl)ethyl)thiazole-4-carboxamide] was tested, and the EC50 was at most 0.2 µM.
With `C#Cc1nc(C(=O)NCCc2ccc(-c3c(F)ccc4ncsc34)cc2)cs1` [Compound C5, 2-Ethynyl-N-(4-(6-fluorobenzo[d]thiazol-7-yl)phenethyl)thiazole-4-carboxamide] the EC50 was at most 0.2 µM.
In the case of `C#Cc1nc(C(=O)NCCc2ccc(-c3ccccc3S(=O)(=O)N(C)C)cc2)cs1` [Compound C6, N-(2-(2′-(N,N-Dimethylsulfamoyl)-[1,1′-biphenyl]-4-yl)ethyl)-2-ethynylthiazole-4-carboxamide], the EC50 is reported as at most 0.2 µM.
With `C#Cc1nc(C(=O)NCCc2ccc(-c3cc(C(N)=O)cc4ncsc34)cc2)cs1` [Compound C8, 7-(4-(2-(2-Ethynylthiazole-4-carboxamido)ethyl)phenyl)benzo[d]thiazole-5-carboxamide] the EC50 was 0.2 to 1 µM.
`C#Cc1nc(C(=O)NCCc2ccc(-c3cc(C(=O)NC)cc4ncsc34)cc2)cs1` [Compound C9, 7-(4-(2-(2-Ethynylthiazole-4-carboxamido)ethyl)phenyl)-N-methylbenzo[d]-thiazole-5-carboxamide] gave an EC50 of 0.2 to 1 µM.
In the case of `C#Cc1nc(C(=O)NCCc2ccc(-c3cc(C(=O)OC)cc4ncsc34)cc2)cs1` [Compound C10, Methyl 7-(4-(2-(2-ethynylthiazole-4-carboxamido)ethyl)phenyl)benzo[d]thiazole-5-carboxylate], the EC50 is reported as at most 0.2 µM.
